Measured values: PubChem BioAssay AID2305 (GlaxoSmithKline (GSK), 2010)
pIC50: −log10 of the molar value.

Tested on: P. falciparum 3D7 growth, pLDH absorbance
Assay: P. falciparum 3D7 growth inhibition, dose response, strain 3D7 (AID 2305)

Row | SMILES | pIC50
1 | Cn1nc(-c2ccc(NC(=O)Nc3cc(C(F)(F)F)ccc3F)cc2)c2cnc(NCCCCN3CCCC3)nc21 | 6.28
2 | COc1ccc(C2CCN(CCCCNC(=O)c3ccc(NC(=O)c4ccc(Cl)cc4)cc3)CC2)c(C)c1 | 6.12
3 | COc1cccc(NC(=O)Cn2c(C)c(C(=O)C(F)(F)F)c3ccccc32)c1 | 6.08
4 | O=C(NC1CCC(N2CCN(c3cccc(C(F)(F)F)c3)CC2)CC1)c1cc2ccccc2[nH]1 (centres undefined) | 6.14
5 | CN(C)c1ccc(Br)c(Br)c1 | 6.01
6 | C[C@H](Cc1ccc(OCCCOc2ccc(C[C@@H](C)NC[C@H](O)c3cccc(Cl)c3)cc2)cc1)NC[C@H](O)c1cccc(Cl)c1 | 6.11
7 | CSc1cccc(NC(=O)c2cc3ccccc3oc2=O)c1 | 6.08
8 | CC(C)N1CCC(NCc2ccc(-c3ccc(Cl)cc3)cc2)CC1 | 6.19
9 | Cc1cc(N)nc2ccc(-c3ccc(CN)cc3)cc12 | 6.21
10 | CCN(CC)c1ccc2nc(N)nc(N)c2c1 | 7.15
11 | CO/C(=C\C=C\c1cc2cc(Cl)c(Cl)cc2[nH]1)C(=O)NC1C[C@H]2CC[C@@H](C1)N2C (some centres undefined) | 5.99
12 | CN(C)C(=S)NN=Cc1cccc(O)c1O | 6.06
13 | CCCC(C)Nc1nc(C)cc(N[C@@H](Cc2ccccc2)C(=O)Nc2ccccc2)n1 (some centres undefined) | 6.07
14 | CC(C)Sc1nc(-c2ccccc2)nc2c1COC(C)(C)C2 | 6.07
15 | O=c1cc(NCCCNC2CCc3c(Cl)cc(Cl)cc32)[nH]c2ccccc12 (centres undefined) | 6.03
16 | O=C(Nc1ccc(CCNCCCc2ccccc2)cc1)Nc1ccc(Cl)c(Cl)c1 | 6.57
17 | O=C(Nc1ccc(Cl)c(Cl)c1)Nc1ccccc1N1CCNCC1 | 6.15
18 | O=[N+]([O-])c1cccc(NC(=S)N2CCCN(Cc3ccc(Cl)cc3Cl)CC2)c1 | 6.03
19 | COc1cccc(C(=O)N2CCN(Cc3cccc(NC(=O)c4cccs4)c3)CC2)c1 | 6.32
20 | COc1ccc(-n2nc(C)c3c2NC(=O)CC3c2ccccc2OCc2ccc(F)cc2)cc1 (centres undefined) | 6.07
21 | O=C(N[C@@H](Cc1ccccc1)C(=O)NCc1cccc(C(F)(F)F)c1)c1ccc(O)c(-c2ccc(Cl)c(Cl)c2)c1 | 6.15
22 | Cc1ccccc1CCNC(=O)c1ccc(N2CCN(c3ccncc3)CC2)nc1 | 5.86
23 | O=C(NCCc1ccccc1)N(Cc1ccccc1-c1cccc(CNCc2ccc3c(c2)OCO3)c1)C1CCN(Cc2ccccc2)CC1 | 6.00
24 | O=C(NC1CCN(Cc2cccc(C(F)(F)F)c2)CC1)c1ccc(-c2cccc(C(F)(F)F)c2)s1 | 6.00
25 | COc1ccc(CCNCCCCCCNCCCc2ccc(Cl)cc2)cc1OC | 6.02

Row | SMILES | pIC50
26 | COc1cc2c(cc1C(F)(F)F)N(C(=O)Nc1cc(F)cc(-c3cncnc3)c1)CC2 | 6.30
27 | O=S(=O)(NCCN1CCCC1)c1ccc(-c2ccc(CNCc3ccccc3)cc2)cc1 | 6.11
28 | CN1CC=C(c2c[nH]c3ccc(OCc4ccccc4)cc23)CC1 | 6.14
29 | COc1ccc(CNC(=O)C2Cc3ccccc3CN2Cc2ccc3ccccc3c2)cc1 (centres undefined) | 5.96
30 | Clc1ccc(OC2CCC(Cn3ccnc3)(c3ccc(Cl)cc3Cl)CC2)c(Cl)c1 (centres undefined) | 6.10
31 | Nc1ncc(-c2ccccc2)cc1-c1nc2cc(Cl)c(F)cc2[nH]1 | 6.59
32 | CCOC(=O)c1ccc(OCc2ccc(-c3ccccc3)cc2)cc1 | 6.09
33 | FC(F)(F)c1cccc(Nc2nc3ccccc3nc2Nc2cccc(C(F)(F)F)c2)c1 | 6.85
34 | CCCN(CCC)CCCNc1ccc(C(=O)Nc2ccc(C(C)C)cc2)cc1[N+](=O)[O-] | 6.15
35 | COc1ccc(NC(=O)NC2CCN(CCCOc3cc(C)nc4ccccc34)CC2)cc1OC | 5.89
36 | COc1ccc(-c2ccc(NC(=O)c3cccc(Cl)c3)cc2)cc1CN1CCCN(C)CC1 | 6.22
37 | Cc1cccc(C(=O)Nc2ccnc(N(C)CCCN(C)Cc3cccc(O)c3)c2)c1 | 6.01
38 | N#Cc1ccc(CN2CCC(Oc3ccc(NC(=O)c4ccsc4)cc3Cl)C2)cc1 (centres undefined) | 6.17
39 | Cc1cccc2[nH]c(-c3ccc(-c4ccc(CNCCN5CCNCC5)cc4)s3)nc12 | 5.94
40 | CC(=O)Nc1ccc(Cl)c(Cl)c1 | 7.40
41 | CC(C)(Oc1c(C2CCN(CCCCNC(=O)c3ccc(-c4ccc(Cl)cc4)cc3)CC2)ccc2c1CCCC2)C(N)=O | 5.96
42 | CN(C)CCOc1cccc(-c2cnc(N)c(-c3nc4ccc(S(C)(=O)=O)cc4[nH]3)c2)c1 | 6.02
43 | O=C(NCCCCN1CCN(c2nsc3ccccc23)CC1)c1ccccc1C(=O)NCCCCN1CCN(c2nsc3ccccc23)CC1 | 6.05
44 | CC(=O)Nc1ccc(C(=O)Nc2cccc(-c3ccc(-c4nc5ccccc5[nH]4)s3)c2)cn1 | 6.74
45 | COc1ccc(CN(C)CCOc2ccc(NC(=O)c3cccc4c(=O)c5cc(SC)ccc5[nH]c34)cc2)cc1OC | 6.06
46 | CCCCNc1nccc2ccc(-c3ccncc3)cc12 | 6.11
47 | O=[N+]([O-])c1ccc(-c2ccc(C=NNc3nc(Nc4ccccc4)nc(Nc4ccccc4)n3)o2)cc1 | 5.84
48 | Cc1ccc2nc(C)cc(NN=Cc3ccccc3F)c2c1 | 6.77
49 | NS(=O)(=O)c1cccc(Nc2nc(N[C@@H]3CCNC3)nc3cc[nH]c(=O)c23)c1 | 6.03
50 | Oc1ccc(CCCc2cc(Oc3c(I)cc(CCc4ncc[nH]4)cc3I)ccc2O)cc1 | 6.06

Row | SMILES | pIC50
51 | O=C(Nc1ccc(-c2cccc(-c3nc4ccccc4[nH]3)c2)cc1)Nc1ccc(Cl)c(Cl)c1 | 6.34
52 | CCCNCc1ccc(-c2ccc(CN(C(=O)c3nn(-c4ccccc4)nc3C)C3CCOCC3)cc2)nc1 | 6.85
53 | CN(C)Cc1cccc(-c2cnc(N)c(-c3nc4ccc(S(C)(=O)=O)cc4[nH]3)c2)c1 | 6.05
54 | CS(=O)(=O)c1ccc2nc(-c3cc(-c4ccc(OCCN5CCOCC5)cc4)cnc3N)[nH]c2c1 | 5.97
55 | CCOC(=O)c1cn(CC)c2cc(F)c(OC3C[C@@H]4CC[C@@]3(C)C4(C)C)cc2c1=O (some centres undefined) | 6.03
56 | O=C(Nc1ccc(Cl)cc1)N[C@H]1CCN(Cc2ccc(OCCCN3CCCCC3)cc2)C1 | 6.17
57 | O=C(CSc1nc2ccccc2c(=O)n1CC1CCCO1)Nc1cc(C(F)(F)F)ccc1Cl (centres undefined) | 6.64
58 | O=C(Cc1ccccc1)NC(CCN1CCC(NC(=O)c2ccc(Cl)cc2)CC1)c1ccc(Cl)c(Cl)c1 (centres undefined) | 6.04
59 | O=C(Nc1cccc(CN2CCCN(Cc3ccc(O)cc3)CC2)c1)c1cc2ccccc2s1 | 6.44
60 | CN1CCCN(Cc2ccc(-c3cccc(NC(=O)c4ccc(C#N)cc4)c3)cc2)CC1 | 6.13
61 | CCOc1cc(C)ccc1C1CCN(CCCCNC(=O)c2cccc(-c3ccc(C(F)(F)F)cc3)c2)CC1 | 6.03
62 | COc1ccc(NC(=O)[C@H](Cc2ccccc2)Nc2cc(C)nc(NCCc3cccnc3)n2)cc1 | 6.12
63 | NC(=O)Nc1ccc2c(Nc3ccc(OCc4ccccc4)cc3)ncnc2c1 | 5.90
64 | COc1cc(C2CCN(CCCCNC(=O)c3ccc(NC(=O)c4ccc(Cl)c(Cl)c4)cc3)CC2)ccc1OC(C)C | 6.49
65 | CC1(C)N=C(N)N=C(N)N1OCCCCON1C(N)=NC(N)=NC1(C)C | 7.15
66 | Brc1ccc(C=NNc2nc3ccccc3[nH]2)cc1 | 6.15
67 | CCNc1cc(C(=O)N[C@@H](Cc2ccccc2)[C@H](O)CNC(C)(C)Cc2ccccc2)cc(N2CCCC2=O)c1 | 6.59
68 | COc1ccc2nccc([C@@H](O)CN3CC[C@H](NCc4nc5c(cc4Cl)OCC(=O)N5)[C@H](F)C3)c2c1 | 5.88
69 | COc1ccc2nc(C)cc(Nc3ccc(Oc4ccc(Cl)c5ccccc45)c(Cl)c3)c2c1 | 6.14
70 | Nc1nc(N)c2c(ccc3nn(C4CCCC4)cc32)n1 | 6.54
71 | CCN(CC)CCN(Cc1ccc(-c2ccc(C(F)(F)F)cc2)cc1)C(=O)Cn1c(CCc2cc(F)c(F)cc2F)nc(=O)c2ccccc21 | 6.14
72 | COc1cc2ncnc(Nc3ccc(Br)c(Cl)c3)c2cc1OC | 6.14
73 | O=C(NC1CC1)c1ccc(Cn2c(SCc3cccc(Cl)c3)nc3ccccc3c2=O)cc1 | 6.38
74 | COc1cc(Nc2ccnc3ccc(C(C)(C)C)cc23)cc(OC)c1OC | 6.21
75 | Cc1ccc(NC(=O)Nc2ccc(Cl)c(C(F)(F)F)c2)cc1-c1ccc(C(=O)Nc2ccncc2)cc1 | 6.59

Row | SMILES | pIC50
76 | CC(C)(C)c1ccc(CN2CCC(CNC(=O)c3cc(-c4ccccc4Cl)cs3)C2)cc1 (centres undefined) | 6.07
77 | CCCCCCCCn1c2c(c(=N)c3c1CCC3)CCC2 | 6.66
78 | N#Cc1cc([N+](=O)[O-])ccc1-n1nc(-c2cccc(Cl)c2)n(Cc2ccco2)c1=S | 6.70
79 | CN(C)CCCNCc1ccc(-c2ccc(C(F)(F)F)cc2)cc1 | 6.06
80 | C#CCOc1ccc2ccccc2c1CNCCCCCCNCc1c(OCC#C)ccc2ccccc12 | 6.11
81 | COc1ccc2nccc([C@@H](O)CN3CCC(NC(=O)Cc4ccc(Br)c5ccccc45)CC3)c2c1 | 6.09
82 | COCCCN=C(N)c1ccc(NC(=O)c2ccc(C(=O)Nc3ccc(C(N)=NCCCOC)cc3)cc2)cc1 | 7.30
83 | O=c1cnc2ccc(F)cc2n1CCN1CCC(NCc2cc(-c3ccccc3)cs2)CC1 | 6.07
84 | Cc1cc(NCCCCCCNc2cc(C)nc3c(C)cccc23)c2cccc(C)c2n1 | 6.39
85 | C[C@@H](Oc1cc(-n2cnc3ccc(OCC4CCN(S(C)(=O)=O)CC4)cc32)sc1C(N)=O)c1ccccc1C(F)(F)F | 5.99
86 | CC(Nc1ccc2c(c1)OCCO2)C(=O)Nc1cc(C(F)(F)F)ccc1N1CCOCC1 (centres undefined) | 6.39
87 | COc1ccccc1C1CCN(CCCCNC(=O)c2ccc(NC(=O)c3ccc(Cl)cc3)cc2)CC1 | 6.62
88 | O=C(NC(Cc1ccccc1)C(=O)O)c1cc(=O)c2ccccc2o1 (centres undefined) | 6.72
89 | Cc1cc(NC(=O)Nc2ccc3ccn(C)c3c2)c2ccccc2n1 | 6.68
90 | COCCNCc1cccc(-c2ccc(CN(C(=O)Nc3ccccc3)C3CCN(Cc4ccccc4)CC3)cc2)c1 | 6.11
91 | Cc1[nH]nc2cc(Nc3nccc(Nc4ccc(Oc5ccccc5)cc4)n3)ccc12 | 6.22
92 | NC(=O)CCC(NC(=O)CNC(=O)Nc1cccc(C(F)(F)F)c1)C(=O)O (centres undefined) | 6.10
93 | CCCCCCN1CCCN(Cc2ccc(C(=O)Nc3ccc(F)c(F)c3)cc2)CC1 | 6.21
94 | O=C(/C=C/c1ccc(Cl)c(Cl)c1)NC[C@@H]1CCC[C@H](CN2CCC(c3c[nH]c4ccccc34)CC2)C1 | 6.14
95 | NC(=NC1CC1)c1ccc2nc(CCCCCc3nc4ccc(C(N)=NC5CC5)cc4[nH]3)[nH]c2c1 | 6.03
96 | NC(=O)c1cc2nc(Nc3ccc(F)cc3)nc(Nc3ccc(S(N)(=O)=O)cc3)c2[nH]1 | 6.10
97 | Cc1ccc2[nH]ncc2c1N(CC1CCCCC1)c1ccnc(Nc2ccc(OCC(O)CN3CC=CCC3)cc2)n1 (centres undefined) | 6.21
98 | CC(CNC1CCN(CCn2c(=O)ccc3ccc(F)cc32)CC1)c1ccccc1 (centres undefined) | 5.90
99 | CCCC(CNCc1cccc(C)c1)CNc1cc(=O)c2ccccc2[nH]1 (centres undefined) | 6.20
